The values below come from ChEMBL document CHEMBL2203245 (Bioorg Med Chem Lett, 2012).

Broadly, the EC50 is the midpoint of the concentration-response curve. What is called IC50 is the concentration that inhibits the measured activity by half. By Emax is commonly meant the maximal effect, on the per cent scale that the assay sets. One may read the Ki as the equilibrium dissociation constant of an inhibitor or competing ligand from its target.

The target in assay [1] is T1, Mu-type opioid receptor (Homo sapiens, UniProt P35372). Nature of the assay: Partial agonist activity at human mu opioid receptor expressed in CHO cells assessed as [35S]GTPgammaS binding after 60 mins by scintillation counting. Format: functional, cell-based. On the technique in general: GTPγS resists hydrolysis and so accumulates on activated G proteins.
Assay [2] deals with T1, Mu-type opioid receptor. Nature of the assay: Antagonist activity at human mu opioid receptor expressed in CHO cells assessed as inhibition of DAMGO-induced [35S]GTPgammaS binding after 60 mins by scintillation counting relative to untreated-control. Type of assay: functional, cell-based.
In assay [3] the target is T2, Delta-type opioid receptor (Homo sapiens, UniProt P41143). Nature of the assay: Antagonist activity at human delta opioid receptor expressed in CHO cells assessed as inhibition of SNC80-induced [35S]GTPgammaS binding after 60 mins by scintillation counting. Type of assay: functional, cell-based.
Assay [4] has as its target T1, Mu-type opioid receptor. Nature of the assay: Antagonist activity at human mu opioid receptor expressed in CHO cells assessed as inhibition of DAMGO-induced [35S]GTPgammaS binding after 60 mins by scintillation counting. Type of assay: functional, cell-based.
The target in assay [5] is T1, Mu-type opioid receptor. Nature of the assay: Partial agonist activity at human mu opioid receptor expressed in CHO cells assessed as [35S]GTPgammaS binding after 60 mins by scintillation counting relative to untreated-control. Type of assay: functional, cell-based.
The target of assay [6] is T2, Delta-type opioid receptor. The assay can be described thus: Agonist activity at human delta opioid receptor expressed in CHO cells assessed as [35S]GTPgammaS binding after 60 mins by scintillation counting. Type of assay: functional, cell-based.
The target in assay [7] is T3, Kappa-type opioid receptor (Homo sapiens, UniProt P41145). The assay can be described thus: Antagonist activity at human kappa opioid receptor expressed in CHO cells assessed as inhibition of U50,488-induced [35S]GTPgammaS binding after 60 mins by scintillation counting. Format: functional, cell-based.
The species entered for assay [8] is Homo sapiens. The assay can be described thus: Selectivity ratio of Ki for human delta opioid receptor to Ki for human mu opioid receptor.
Assay [9] addresses T1, Mu-type opioid receptor. Nature of the assay: Displacement of [3H]DAMGO from human mu opioid receptor expressed in CHO cells after 60 mins by scintillation counting. Type of assay: cell-based. Background: Displacement assays read how much labelled ligand stays bound in the presence of the test substance.
The target in assay [10] is T2, Delta-type opioid receptor. Nature of the assay: Displacement of [3H]Naltrindole from human delta opioid receptor expressed in CHO cells after 3 hrs by scintillation counting. Format: cell-based.
The species named for assay [11] is Homo sapiens. The assay can be described thus: Selectivity ratio of Ki for human kappa opioid receptor to Ki for human mu opioid receptor.
Assay [12] addresses T3, Kappa-type opioid receptor. Nature of the assay: Displacement of [3H]U69,593 from human kappa opioid receptor expressed in CHO cells after 60 mins by scintillation counting. Type of assay: cell-based.
In assay [13] the target is T3, Kappa-type opioid receptor. The assay can be described thus: Agonist activity at human kappa opioid receptor expressed in CHO cells assessed as [35S]GTPgammaS binding after 60 mins by scintillation counting. Type of assay: functional, cell-based.
Assay [14] concerns the target T1, Mu-type opioid receptor. Nature of the assay: Agonist activity at human mu opioid receptor expressed in CHO cells assessed as [35S]GTPgammaS binding after 60 mins by scintillation counting relative to untreated-control. Format: functional, cell-based.
For assay [15], the target named is T2, Delta-type opioid receptor. Nature of the assay: Partial agonist activity at human delta opioid receptor expressed in CHO cells assessed as [35S]GTPgammaS binding after 60 mins by scintillation counting relative to untreated control. Type of assay: functional, cell-based.
Assay [16] deals with T2, Delta-type opioid receptor. The assay can be described thus: Partial agonist activity at human delta opioid receptor expressed in CHO cells assessed as [35S]GTPgammaS binding after 60 mins by scintillation counting. Type of assay: functional, cell-based.

T2 sequence (P41143 whole entry): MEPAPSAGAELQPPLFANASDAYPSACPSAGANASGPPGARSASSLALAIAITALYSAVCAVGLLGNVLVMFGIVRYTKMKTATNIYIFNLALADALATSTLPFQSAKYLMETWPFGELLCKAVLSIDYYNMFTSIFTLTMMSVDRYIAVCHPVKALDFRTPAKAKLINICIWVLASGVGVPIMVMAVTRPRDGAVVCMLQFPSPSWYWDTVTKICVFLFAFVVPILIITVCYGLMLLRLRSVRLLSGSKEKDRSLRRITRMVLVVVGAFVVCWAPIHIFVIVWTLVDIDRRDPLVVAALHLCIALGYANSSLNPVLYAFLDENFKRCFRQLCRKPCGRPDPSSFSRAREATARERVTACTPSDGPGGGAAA
T3 sequence (P41145 whole entry): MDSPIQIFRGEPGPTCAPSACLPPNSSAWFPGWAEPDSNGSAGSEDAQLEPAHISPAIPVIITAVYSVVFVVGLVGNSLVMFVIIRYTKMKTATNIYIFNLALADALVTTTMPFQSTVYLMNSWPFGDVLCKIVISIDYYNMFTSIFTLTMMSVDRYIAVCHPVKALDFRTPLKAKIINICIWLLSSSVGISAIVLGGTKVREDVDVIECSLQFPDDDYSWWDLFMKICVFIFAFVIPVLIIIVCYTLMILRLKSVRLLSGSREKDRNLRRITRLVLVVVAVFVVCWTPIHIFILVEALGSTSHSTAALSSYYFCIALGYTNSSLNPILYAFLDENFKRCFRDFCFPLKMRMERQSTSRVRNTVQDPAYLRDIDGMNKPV
T1 sequence (P35372 whole entry): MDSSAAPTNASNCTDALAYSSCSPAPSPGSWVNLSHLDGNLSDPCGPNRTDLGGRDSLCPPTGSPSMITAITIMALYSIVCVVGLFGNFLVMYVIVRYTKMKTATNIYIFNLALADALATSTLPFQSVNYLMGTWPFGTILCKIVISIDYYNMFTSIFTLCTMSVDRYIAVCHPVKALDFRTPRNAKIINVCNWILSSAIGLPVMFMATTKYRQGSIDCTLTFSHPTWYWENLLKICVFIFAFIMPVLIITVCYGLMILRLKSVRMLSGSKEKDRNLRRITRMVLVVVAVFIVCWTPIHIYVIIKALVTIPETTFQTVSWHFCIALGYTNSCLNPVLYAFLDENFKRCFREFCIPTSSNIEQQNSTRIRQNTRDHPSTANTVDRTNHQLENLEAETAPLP

In the case of `CC(C)Oc1ccc(-c2ccc(CCNC(=O)c3ccc4c(c3)C3(C)CCN(CC5CC5)C(C4)C3C)cc2)cc1` (racemic), the EC50 worked out at 2.3 nM at Mu-type opioid receptor [1] and 18 nM in assay [6]. Besides, the Imax on Mu-type opioid receptor [2] amounted to 72%. For the same compound, the IC50 entry in assay [3] (cho) is “Not Active”; at Mu-type opioid receptor [4], 13 nM; in [7], “Not Active”. For the same compound, at Mu-type opioid receptor [5], the Emax came to 35%.
Turning to `CC1C2Cc3ccc(C(=O)NCCc4ccc(-c5ccc(OC(F)F)cc5)cc4)cc3C1(C)CCN2CC1CC1` (racemic), the Ratio Ki in the assay listed under Homo sapiens [8] is 3; in the assay filed under Homo sapiens [11], 9. The values for the Ki (at Mu-type opioid receptor [9]; in assay [10]; in [12]) were 0.3 nM, 0.8 nM and 2.7 nM, respectively.
`COc1cccc(-c2ccc(CCNC(=O)c3ccc4c(c3)C3(C)CCN(CC5CC5)C(C4)C3C)cc2)c1` (racemic): the IC50 entry in [3] (cho) and in assay [7] was “Not Active” in each case. Also, the concentration for a half-maximal effect (EC50) was found to be 3.1 nM in assay [13] and 1.2 nM in [6]. In addition, the Ki in assay [10] stood at 1.3 nM; in assay [12], 0.22 nM.
As to `COc1ccc(-c2ccc(CCNC(=O)c3ccc4c(c3)C3(C)CCN(CC5CC5)C(C4)C3C)cc2)cc1C` (racemic), the Imax on Mu-type opioid receptor [2] amounted to 81%. For the same compound, the half-inhibitory concentration (IC50) entry in [3] (cho) and in assay [7] was “Not Active” in each case. On Mu-type opioid receptor [5], the Emax turned out to be 21%. In addition, in [6], the EC50 was 2.8 nM.
Turning to `COc1ccc(-c2ccc(CCNC(=O)c3ccc4c(c3)C3(C)CCN(CC5CC5)C(C4)C3C)cc2)cc1` (racemic), the Ratio Ki in the assay filed under Homo sapiens [8] amounted to 2; in the assay filed under Homo sapiens [11], 18. Moreover, the inhibition constant (Ki) on Mu-type opioid receptor [9] came out at 0.084 nM; in assay [10], 0.18 nM; in assay [12], 1.5 nM.
As to `CC1C2Cc3ccc(C(=O)NCCc4ccc(-c5ccccc5O)cc4)cc3C1(C)CCN2CC1CC1` (racemic), the EC50 at Mu-type opioid receptor [1] was determined as 1.5 nM; in [13], 0.086 nM; in assay [6], 0.16 nM. In addition, on Mu-type opioid receptor [2], the Imax is 67%. For the same compound, the half-maximal inhibitory concentration (IC50) entry in assay [3] (cho) was “Not Active”; on Mu-type opioid receptor [4] it was 64 nM; in [7] it was “Not Active”. In addition, the figures for the Ki (on Mu-type opioid receptor [9]; in assay [10]; in assay [12]) were 0.0056 nM, 0.24 nM and 2.1 nM, respectively. For the same compound, the Emax at Mu-type opioid receptor [5] turned out to be 48%.
Regarding `COc1ccccc1-c1ccc(CCNC(=O)c2ccc3c(c2)C2(C)CCN(CC4CC4)C(C3)C2C)cc1` (racemic), the Ratio Ki in the assay filed under Homo sapiens [8] worked out at 7; in the assay filed under Homo sapiens [11], 3. For the same compound, the Ki on Mu-type opioid receptor [9] was determined as 0.12 nM; in assay [10], 0.84 nM; in [12], 0.38 nM.
`CC1C2Cc3ccc(O)cc3C1(C)CCN2CC1CC1` (racemic): the Ki amounted to 2 nM in assay [10] and 0.07 nM in [12].
Consider `CC1C2Cc3ccc(C(=O)NCCc4ccc5ccccc5c4)cc3C1(C)CCN2CC1CC1` (racemic), for which the Ratio Ki was 5 in the assay filed under Homo sapiens [8] and 1 in the assay listed under Homo sapiens [11]. In addition, the Ki turned out to be 0.18 nM at Mu-type opioid receptor [9], 0.9 nM in assay [10] and 0.2 nM in assay [12].
For `CC1C2Cc3ccc(C(=O)NCCc4ccc(-c5cccc(O)c5)cc4)cc3C1(C)CCN2CC1CC1` (racemic), the values for the Ratio Ki in the assay filed under Homo sapiens [8] and in the assay filed under Homo sapiens [11] were 57 and 62, respectively. The Ki on Mu-type opioid receptor [9] came to 0.021 nM; in assay [10], 1.2 nM; in [12], 1.3 nM.
For the compound `COc1ccc2cc(CCNC(=O)c3ccc4c(c3)C3(C)CCN(CC5CC5)C(C4)C3C)ccc2c1` (racemic), the Imax on Mu-type opioid receptor [2] worked out at 76%. Also, the IC50 entry in assay [3] (cho) is “Not Active”; at Mu-type opioid receptor [4], 45 nM; in assay [7] it was “Not Active”. The EC50 in assay [13] is 1.3 nM; in [6], 7.5 nM. Also, the Ki at Mu-type opioid receptor [9] was found to be 0.064 nM; in assay [10], 2.2 nM; in assay [12], 0.45 nM. Further, the Emax on Mu-type opioid receptor [14] is 6.6%.
With `COc1ccc(-c2ccc(CCNC(=O)c3ccc4c(c3)C3(C)CCN(CC5CC5)C(C4)C3C)cc2)cc1OC` (racemic), the figures for the Ratio Ki in the assay filed under Homo sapiens [8] and in the assay filed under Homo sapiens [11] were 211 and 183, respectively. For the same compound, the EC50 came to 1.6 nM at Mu-type opioid receptor [1], 3 nM in assay [13] and 6.2 nM in assay [16]. Moreover, the maximal response (Emax) in assay [15] was found to be 73%; at Mu-type opioid receptor [5], 32%. Further, the Imax on Mu-type opioid receptor [2] is 70%. The figures for the IC50 (in assay [3] (read-out: IC50); on Mu-type opioid receptor [4]; in assay [7]) were 70 nM, 29 nM and “Not Active”, respectively. Besides, the Ki on Mu-type opioid receptor [9] came out at 0.0071 nM; in [10], 1.5 nM; in [12] it was 1.3 nM.
As to `C[C@H]1[C@H]2Cc3ccc(C(=O)NCCc4ccc(-c5ccc(O)cc5)cc4)cc3[C@]1(C)CCN2CC1CC1`, at Mu-type opioid receptor [2], the Imax stood at 62%. Also, the IC50 entry in [3] (cho) and in assay [7] was “Not Active” each time. The EC50 stood at 0.26 nM in [13] and 0.31 nM in assay [6]. Besides, the Emax on Mu-type opioid receptor [5] stood at 31%. Also, the Ki in assay [10] was determined as 0.78 nM; in assay [12], 0.36 nM.
On to `CC1C2Cc3ccc(C(=O)NCCc4ccc(-c5ccc6c(c5)OCO6)cc4)cc3C1(C)CCN2CC1CC1` (racemic), for which the IC50 entry in assay [3] (cho) and in assay [7] was “Not Active” in each case. In addition, the figures for the EC50 in assay [13] and in assay [6] were 0.34 nM and 0.8 nM, respectively.
For the compound `CC1C2Cc3ccc(C(=O)NCCc4ccc(-c5ccc(OC(F)(F)F)cc5)cc4)cc3C1(C)CCN2CC1CC1` (racemic), the Ratio Ki in the assay filed under Homo sapiens [8] turned out to be 4; in the assay filed under Homo sapiens [11], 3. Besides, the Ki worked out at 1.8 nM on Mu-type opioid receptor [9], 6.6 nM in assay [10] and 5.2 nM in assay [12].
